# Bridge positions count the residues as written; N and C are the ends. Peptide text beside a SMILES is read from it.
# Key:
# human Nav1.7 = molecular target: T1, human Nav1.7 (Homo sapiens, UniProt Q15858); experiment: Automated patch-clamp (Nanion SyncroPatch 384PE) on CHO cells expressing human Nav1.7; assay type: cell-based; details: for block of Nav1.7 inward current: 100 nM toxin, end of application (about 12-13 min), CHO hNav1.7; for Hill value: same dose-response fit as IC50, CHO hNav1.7 automated patch-clamp
# T1 construct: expressed in transfected cells
# Description: We used a CHO mammalian cell line expressing the human Nav1.7 instead of Xenopus oocytes for the pharmacological evaluation. […] 100-ms pulses from −100 mV to −10 mV were applied at a frequency of 0.2 Hz and various concentrations of PhlTx1 were applied to the cells. […] Using a manual patch clamp, which is better suited to investigate current recovery from block than an automated patch clamp that requires several washing steps, we investigated the reversibility properties of a PhlTx1 block.
# CHO cells stably expressing the human Nav1.7 cells were cultured in Dulbecco’s Modified Eagle’s Medium (DMEM) supplemented with 10% fetal calf serum, 1 mM pyruvic acid, 4 mM glutamine, 10 IU/mL penicillin and 10 μg/mL streptomycin (Gibco, Grand Island, NY, USA), and incubated at 37 °C in a 5% CO2 atmosphere. For automated patch-clamp recordings, cells were detached with trypsin and floating single cells were diluted (~300,000 cells/mL) in medium contained (in mM): 4 KCl, 140 NaCl, 5 Glucose, 10 HEPES (pH 7.4, osmolarity 290 mOsm).
# Chips with single-hole and high-resistance (~6–7 MΩ) were used for CHO cell recordings. Voltage pulses and whole-cell recordings were achieved using the PatchControl384 v1.5.2 software (Nanion, Munich, Germany) and the Biomek v1.0 interface (Beckman Coulter). Prior recordings, dissociated cells were shaken at 60 RPM in a cell hotel reservoir at 10 °C. After cell catching, sealing, whole-cell formation, liquid application, recording, and data acquisition were all performed sequentially and automatically. […] Whole-cell experiments were done at −100 mV holding potential and at room temperature (18–22 °C), while currents triggered at −10 mV test potential were sampled at 20 kHz. Stimulation frequency was set at 0.2 Hz. Toxins were prepared at various concentrations in the extracellular solution, itself supplemented with 0.3% BSA. […] Compound solutions were diluted 3 times in the patch-clamp recording well by adding 30 μL to 60 μL external solution to reach the final reported concentration and the test volume of 90 μL. Percentages of current inhibitions were measured at the end of a 12- to 15-min application time (12-min for fast blocking toxins; 15-min for slow blocking ones). A single concentration of peptide was tested on each cell for building the full-inhibition curves.
# human Nav1.7 channel = details: ref [45]; cited from earlier work
# [1] = system: formalin-induced spontaneous pain behavior; experiment: Formalin pain test in mice after intrathecal injection; assay type: in vivo, C57BL/6J mice; details: mouse, in vivo
# T1 sequence (Q15858 whole entry): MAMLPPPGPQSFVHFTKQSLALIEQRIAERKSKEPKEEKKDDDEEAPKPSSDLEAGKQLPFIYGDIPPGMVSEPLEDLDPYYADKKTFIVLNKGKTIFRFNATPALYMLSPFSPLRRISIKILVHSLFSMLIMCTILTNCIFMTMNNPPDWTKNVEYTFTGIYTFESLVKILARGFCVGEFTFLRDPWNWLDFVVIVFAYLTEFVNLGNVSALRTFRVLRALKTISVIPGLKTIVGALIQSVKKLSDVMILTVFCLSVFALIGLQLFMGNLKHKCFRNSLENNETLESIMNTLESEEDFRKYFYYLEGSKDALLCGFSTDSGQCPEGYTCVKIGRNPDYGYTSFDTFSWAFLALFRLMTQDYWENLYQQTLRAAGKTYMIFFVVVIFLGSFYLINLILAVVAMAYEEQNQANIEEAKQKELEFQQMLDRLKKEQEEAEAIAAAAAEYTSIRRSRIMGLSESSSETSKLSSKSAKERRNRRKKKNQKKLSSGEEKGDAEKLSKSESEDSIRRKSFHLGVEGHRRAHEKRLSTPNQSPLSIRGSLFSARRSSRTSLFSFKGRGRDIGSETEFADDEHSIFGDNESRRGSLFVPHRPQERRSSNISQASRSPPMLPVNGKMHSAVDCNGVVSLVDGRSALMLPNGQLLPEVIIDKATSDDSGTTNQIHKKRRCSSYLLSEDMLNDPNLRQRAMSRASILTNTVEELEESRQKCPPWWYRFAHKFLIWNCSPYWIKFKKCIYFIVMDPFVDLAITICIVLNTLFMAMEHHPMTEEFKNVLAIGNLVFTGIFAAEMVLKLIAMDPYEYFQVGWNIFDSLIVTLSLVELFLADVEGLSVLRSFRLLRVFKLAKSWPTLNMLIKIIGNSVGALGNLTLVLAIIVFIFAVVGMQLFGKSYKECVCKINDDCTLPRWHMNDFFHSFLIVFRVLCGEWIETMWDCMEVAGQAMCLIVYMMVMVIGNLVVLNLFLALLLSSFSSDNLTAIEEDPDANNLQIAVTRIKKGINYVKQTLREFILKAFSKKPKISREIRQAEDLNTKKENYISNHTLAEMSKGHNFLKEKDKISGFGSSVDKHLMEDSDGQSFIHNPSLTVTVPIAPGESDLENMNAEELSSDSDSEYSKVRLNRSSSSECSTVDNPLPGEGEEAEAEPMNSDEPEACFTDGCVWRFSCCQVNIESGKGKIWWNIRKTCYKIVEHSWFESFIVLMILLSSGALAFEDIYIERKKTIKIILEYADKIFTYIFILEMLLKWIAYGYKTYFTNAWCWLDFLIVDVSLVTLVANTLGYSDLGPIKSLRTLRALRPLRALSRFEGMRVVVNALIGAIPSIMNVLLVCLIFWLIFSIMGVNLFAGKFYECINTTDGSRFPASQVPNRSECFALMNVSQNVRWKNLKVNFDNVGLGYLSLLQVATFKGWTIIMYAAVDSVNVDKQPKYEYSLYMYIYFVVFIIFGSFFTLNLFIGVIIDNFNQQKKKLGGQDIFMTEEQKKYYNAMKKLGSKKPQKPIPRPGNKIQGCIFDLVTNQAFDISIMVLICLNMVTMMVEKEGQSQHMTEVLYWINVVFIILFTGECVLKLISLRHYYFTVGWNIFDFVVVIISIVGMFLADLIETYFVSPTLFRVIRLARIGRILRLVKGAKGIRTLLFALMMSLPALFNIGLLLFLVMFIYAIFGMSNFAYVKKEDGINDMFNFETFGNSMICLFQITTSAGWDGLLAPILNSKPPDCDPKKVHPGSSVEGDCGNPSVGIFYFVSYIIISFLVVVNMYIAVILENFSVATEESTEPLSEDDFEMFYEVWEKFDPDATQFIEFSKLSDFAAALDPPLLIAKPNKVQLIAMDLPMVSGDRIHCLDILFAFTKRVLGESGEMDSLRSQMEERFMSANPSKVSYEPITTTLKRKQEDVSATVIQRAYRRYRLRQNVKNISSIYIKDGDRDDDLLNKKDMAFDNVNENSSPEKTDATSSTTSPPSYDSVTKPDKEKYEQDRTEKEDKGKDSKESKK
Compound,IC50 (human Nav1.7) [nM],block of Nav1.7 inward current (human Nav1.7),further results
CC(C)C[C@@H]1NC(=O)[C@H](Cc2c[nH]c3ccccc23)NC(=O)[C@H](Cc2ccc(O)cc2)NC(=O)[C@H](CCCNC(=N)N)NC(=O)[C@@H](NC(=O)[C@@H](N)CCC(=O)O)CSSC[C@@H]2NC(=O)[C@@H]3CSSC[C@@H](C(=O)N[C@H](C(=O)N[C@@H](Cc4c[nH]c5ccccc45)C(=O)N[C@@H](CC(=O)O)C(=O)NCC(=O)N[C@H](C(=O)N[C@@H](Cc4ccccc4)C(=O)N[C@@H](CO)C(=O)O)[C@@H](C)O)C(C)C)NC(=O)[C@H](Cc4c[nH]c5ccccc45)NC(=O)CNC(=O)[C@H](Cc4c[nH]cn4)NC(=O)[C@H](CCCNC(=N)N)NC(=O)[C@H](CCCNC(=N)N)NC(=O)[C@H](CO)NC(=O)[C@H](CSSC[C@H](NC(=O)CNC(=O)CNC1=O)C(=O)N[C@@H](CO)C(=O)N[C@@H](C)C(=O)NCC(=O)N[C@@H](CCC(N)=O)C(=O)N[C@@H]([C@@H](C)O)C(=O)N3)NC(=O)[C@H](C(C)C)NC(=O)[C@H](CC(C)C)NC(=O)[C@H](Cc1c[nH]cn1)NC(=O)[C@H](CCCCN)NC2=O [ProTx-I],7.1,–,–
CSCC[C@@H]1NC(=O)[C@H](Cc2ccc(O)cc2)NC(=O)[C@H](CCCNC(=N)N)NC(=O)[C@@H](NC(=O)[C@@H](N)CC(=O)O)CSSC[C@@H]2NC(=O)[C@@H]3CSSC[C@@H](C(=O)N[C@@H](C)C(=O)N[C@@H](Cc4c[nH]c5ccccc45)C(=O)N[C@@H](CC(=O)O)C(=O)N[C@@H](Cc4ccccc4)C(=O)N[C@H](C(=O)N[C@@H](Cc4ccccc4)C(=O)N[C@H](C(=O)O)[C@@H](C)O)[C@@H](C)O)NC(=O)[C@H](Cc4ccc(O)cc4)NC(=O)[C@H](CCCCN)NC(=O)[C@H](CCSC)NC(=O)[C@H](CCCCN)NC(=O)[C@H](CCCNC(=N)N)NC(=O)[C@H](CCCCN)NC(=O)[C@H](CSSC[C@H](NC(=O)[C@H](CC(=O)O)NC(=O)CNC(=O)[C@H](Cc4ccccc4)NC1=O)C(=O)N[C@@H](CCC(=O)O)C(=O)N[C@@H](CCCCN)C(=O)N[C@@H](CC(=O)O)C(=O)N[C@@H](CCC(=O)O)C(=O)N[C@@H](CC(=O)O)C(=O)N3)NC(=O)CNC(=O)[C@H](CC(C)C)NC(=O)[C@H](Cc1c[nH]cn1)NC(=O)[C@H](CCCCN)NC2=O [Pn3a],–,fully insensitive,Hill value (human Nav1.7): 3; IC50 (human Nav1.7 channel): 0.9 nM
CC[C@H](C)[C@H](NC(=O)[C@H](CCC(=O)O)NC(=O)[C@H](Cc1ccc(O)cc1)NC(=O)[C@H](CCCCN)NC(=O)[C@@H]1CSSC[C@@H]2NC(=O)[C@H](CCC(N)=O)NC(=O)[C@H](CC(=O)O)NC(=O)[C@H](CC(N)=O)NC(=O)[C@H](CO)NC(=O)[C@@H]3CCCN3C(=O)[C@H](CC(N)=O)NC(=O)[C@@H]3CSSC[C@H](NC(=O)[C@H](C(C)C)NC(=O)[C@H](CC(C)C)NC(=O)[C@H](CC(N)=O)NC(=O)[C@H](CO)NC(=O)[C@H](CO)NC(=O)[C@H](CCCCN)NC(=O)[C@H](CSSC[C@H](NC(=O)[C@@H](N)CCC(=O)O)C(=O)N[C@@H](CC(C)C)C(=O)NCC(=O)N[C@@H](Cc4ccccc4)C(=O)NCC(=O)N[C@@H](CCCCN)C(=O)NCC(=O)N3)NC2=O)C(=O)N[C@@H](CO)C(=O)N[C@@H](CCCNC(=N)N)C(=O)N[C@@H](CCCCN)C(=O)N[C@@H](Cc2c[nH]cn2)C(=O)N[C@@H](CCCNC(=N)N)C(=O)N[C@@H](Cc2c[nH]c3ccccc23)C(=O)N1)C(N)=O [HnTx-IV],4.3,–,–
CC[C@H](C)[C@@H]1NC(=O)[C@H](CC(N)=O)NC(=O)[C@H](CCCNC(=N)N)NC(=O)[C@@H]2CCCN2C(=O)[C@H](Cc2c[nH]c3ccccc23)NC(=O)[C@H](CCCCN)NC(=O)[C@H](CO)NC(=O)[C@H](CCCCN)NC(=O)[C@@H]2CSSC[C@@H]3NC(=O)[C@H](CCCCN)NC(=O)CNC(=O)[C@H](Cc4c[nH]c5ccccc45)NC(=O)[C@H](Cc4ccccc4)NC(=O)[C@H](CCCNC(=N)N)NC(=O)[C@H](C(C)C)NC(=O)[C@@H](NC(=O)[C@@H](N)CC(=O)O)CSSC[C@H](NC(=O)[C@H](CSSC[C@@H](C(=O)N[C@H](C(=O)N[C@@H](Cc4c[nH]c5ccccc45)C(=O)N[C@@H](CC(=O)O)C(=O)NCC(=O)N[C@@H](CO)C(=O)N[C@H](C(=O)O)C(C)C)C(C)C)NC1=O)NC(=O)[C@H](CC(=O)O)NC(=O)[C@H](CO)NC(=O)[C@H]([C@@H](C)O)NC(=O)[C@H](CCC(N)=O)NC(=O)[C@H](CO)NC3=O)C(=O)N1CCC[C@H]1C(=O)N[C@@H](Cc1c[nH]cn1)C(=O)N[C@@H](CC(C)C)C(=O)N[C@@H](C)C(=O)N2 [GrTx1],15.3,about 50%,–
"CC(C)C[C@H](NC(=O)[C@H](CCCCN)NC(=O)[C@H](Cc1c[nH]c2ccccc12)NC(=O)[C@H](CCCCN)NC(=O)[C@@H]1CSSC[C@@H]2NC(=O)[C@H](CCC(=O)O)NC(=O)[C@H](CC(N)=O)NC(=O)[C@H](CCCCN)NC(=O)CNC(=O)[C@@H]3CCCN3C(=O)[C@H]([C@@H](C)O)NC(=O)[C@@H]3CSSC[C@H](NC(=O)[C@H](C(C)C)NC(=O)[C@H](CCCNC(=N)N)NC(=O)[C@H](CC(N)=O)NC(=O)[C@@H]4CCCN4C(=O)[C@H](CSSC[C@H](NC(=O)[C@H](C)N)C(=O)N[C@@H](CCCCN)C(=O)NCC(=O)N[C@@H](C(C)C)C(=O)N[C@@H](Cc4ccccc4)C(=O)N[C@@H](CC(=O)O)C(=O)N[C@@H](C)C(=O)N3)NC2=O)C(=O)N[C@@H](CO)C(=O)N[C@@H](CC(=O)O)C(=O)N[C@@H](CCCCN)C(=O)N[C@@H](Cc2c[nH]cn2)C(=O)N[C@@H](CCCCN)C(=O)N[C@@H](Cc2c[nH]c3ccccc23)C(=O)N1)C(=O)O [HwTx-I] (H-ACKGVFDACTPGKNECCPNRVCSDKHKWCKWKL-OH; disulfide 2-17, 9-22, 16-29; N-terminus and C-terminus assumed)",–,incomplete block,"time constant of inhibition (τ) (human Nav1.7; 100 nM, mono-exponential fit (PhlTx1 n = 8)): 492 s; Hill value (human Nav1.7): 2.3"
"CC[C@H](C)[C@H](NC(=O)[C@H](CCCCN)NC(=O)[C@H](CCCCN)NC(=O)[C@H](CCCCN)NC(=O)[C@@H]1CSSC[C@@H]2NC(=O)[C@H](CCCCN)NC(=O)[C@H](CCCNC(=N)N)NC(=O)[C@H](CCC(=O)O)NC(=O)[C@H](CCC(=O)O)NC(=O)[C@H](CC(=O)O)NC(=O)[C@@H]3CSSC[C@H](NC(=O)[C@H](C(C)C)NC(=O)[C@H](CC(C)C)NC(=O)CNC(=O)[C@H](CCC(=O)O)NC(=O)[C@H](CSSC[C@H](NC(=O)[C@@H](N)Cc4ccc(O)cc4)C(=O)N[C@@H](CCC(N)=O)C(=O)N[C@@H](CCCCN)C(=O)N[C@@H](Cc4c[nH]c5ccccc45)C(=O)N[C@@H](CCSC)C(=O)N[C@@H](Cc4c[nH]c5ccccc45)C(=O)N[C@@H]([C@@H](C)O)C(=O)N3)NC2=O)C(=O)N[C@@H](CCCNC(=N)N)C(=O)N[C@@H](CC(C)C)C(=O)N[C@@H](Cc2c[nH]c3ccccc23)C(=O)N1)C(=O)N[C@@H](CCC(=O)O)C(=O)N[C@@H](Cc1c[nH]c2ccccc12)C(=O)O [GsAFII] (H-YCQKWMWTCDEERKCCEGLVCRLWCKKKIEW-OH; disulfide 2-16, 9-21, 15-25)",13.6,–,–
"CN1CC[C@]23c4c5ccc(O)c4O[C@H]2[C@@H](O)C=C[C@H]3[C@H]1C5 [morphine, reference compound]",–,–,"formalin-induced pain behavior (licking), Phase II (inflammation, 10–45 min) [1]: 0"

# — PMC6628435, “Chemical Synthesis, Proper Folding, Nav Channel Selectivity Profile and Analgesic Properties of the Spider Peptide Phlotoxin 1” (Toxins, 2019)
